Laboratory results reported in patent publication US6841535B2, “Peptide-mediated transfection agents and methods of use” (Active Motif, priority 2000, dated 2005).
*1 amine or outer side, *2 acyl side, *3 side chain or, on linkers, in order; H or OH if unused. Where a SMILES comes first, the peptide text is derived from it. Where no end group is shown, it is not given here. Cysteamide = C(CS[*:3])N[*:1]

Experiments:
[1] = phosphatidylcholine or phosphatidylserine monolayers; cited from earlier work
[2] = test system: Acheloplasma laidlawii and Spiroplasma melliferum; conditions: concentrations much lower than minimal inhibitory concentrations; cited from earlier work
[3] = test system: mammalian fibroblasts, NIH 3T3 fibroblasts or murine L1210 lymphocytes; assay: Cellular localization of lucifer yellow-linked peptides; type: cell-based; conditions: 3 min incubation at 10 μM
[4] = test system: HS68, NIH 3T3 and 293 cell lines; assay: Toxicity of Pep-2 in cell lines (MTT staining); conditions: concentration of 1 mM
[5] = test system: HS-68, NIH 3T3, C2C12, COS-7 and CEM-SS cell lines; assay: Cytotoxicity of MPG and MPG/DNA complex, MTT colorimetric assay; type: cell-based
Method: In order to generalize the use of MPG as an efficient delivery agent, the degree of cytotoxicity of MPG and of the MPG/DNA complex (charge ratio 5:1) were evaluated in several cell lines, including HS-68 and NIH 3T3 fibroblasts, C212 myoblasts, COS-7 kidney cells and human CEM-SS lymphoblasts. […] At much higher concentrations of 0.1 and 1 mM MPG, however, cell viability decreased by ˜25 and 60%, respectively.
The cytotoxicity of both MPG and MPG/plasmid (pRL-SV40 plasmid encoding reporter R.reniformis luciferase) complexes were investigated in the cell lines mentioned above. Cells grown in 35 mm diameter dishes to 75% confluency (0.5-1×10^6 cells per dish) were incubated with 0.1 μM to 1 mM MPG alone or complexed with DNA in a 5:1 ratio, in 1 ml DMEM for 3 h, after which 10% serum was added. Cell culture medium with MPG or MPG/plasmid was not changed, and cell proliferation was measured over 4 days. Cytotoxicity was evaluated by the MTT colorimetric assay, after removing cell culture medium and replacing it with PBS containing 5 mg/ml of MTT (Mosmann, T. (1983) J. Immunol. Methods, 65: 55-63). Results shown correspond to the averages of four separate experiments.
HS-68, NIH 3T3, C2C12, cos-7 and CEM-SS cell lines were incubated with 0.1 μM to 1 mM MPG alone (A) and with MPG complexed with DNA (pRL-SV40 plasmid encoding R.reniformis luciferase) in a peptide/DNA ratio of 5:1 (B), at 37° C. in DMEM supplemented with 10% FCS. The cytotoxicity of MPG alone and of MPG/DNA complexes was evaluated in MTT colorimetric assays and the results were expressed as percentages of dye reduction in cell lines incubated without MPG. The results correspond to averages of four separate experiments.

[6] = physiological conditions; cited from earlier work
[7] = Transmembrane ionic channel formation; parameters: species or system Xenopus laevis; conditions: voltage-triggered insertion
Description: They were characterized on Xenopus laevis oocyte plasma membranes and confirmed on planar lipid bilayers proving thus that channel formation is a true property of the peptide (FIG. 11). The insertion of the peptide in the membrane is voltage-triggered and the channel thus formed are selective for monovalent cations.

[8] = test system: cardiac cell line H9C2; assay: Nuclear labeling of cells by fluorescein ODN-peptide conjugate; type: cell-based
Method: (§1) For the second ODN, the situation is clearer. This ODN conjugated 3′ with fluorescein and containing an SH group in 5′ for localization reasons has the sequence 5′-[…]-3′ (SEQ ID NO:31) and corresponds to the AS-βCOM antisense sequence complementary to conserved sequence region found in every mRNA encoding β subunit of Ca^2+ channels. After 5 min incubation at 37° C., more than 90% of the cells (cardiac cell line H9C2) were labeled in the nucleus while only 25% of the cells were labeled after 3 hours incubation when using the free ODN.

[9] = test system: β subunit of Ca^2+ channels; assay: Ba2+ current density of treated H9C2 cells; type: cell-based; conditions: all labeled cells
Method: as §1

Molecule: MGLGLHLLVLAAALQGAWSQPKKKRKV (Ac-MGLGLHLLVLAAALQGAWSQPKKKRKV; not fully specified (C-terminus); printed as MGLGLHLLVLAAALQGAWSQPKKKRKV) [[1]]
- surface pressure increase [1]: ~15 mN/m
- effect on membrane potential and transmembrane pH gradient [2]: decrease
- final localization of lucifer yellow-linked peptide [3]: localize in the nuclei of the cells

Molecule: CC(=O)N[C@@H](Cc1ccc(O)cc1)C(=O)NCC(=O)N[C@@H](Cc1ccccc1)C(=O)N[C@@H](CCCCN)C(=O)N[C@@H](CCCCN)C(=O)N[C@@H](CCCNC(=N)N)C(=O)N[C@@H](CCCNC(=N)N)C(=O)N[C@@H](Cc1c[nH]c2ccccc12)C(=O)N[C@@H](CO)C(=O)N[C@@H](CCC(N)=O)C(=O)N1CCC[C@H]1C(=O)N[C@@H](CCCCN)C(=O)N[C@@H](CCC(=O)O)C(=O)N[C@H](C(=O)N[C@@H](Cc1c[nH]c2ccccc12)C(=O)N[C@@H](CCC(=O)O)C(=O)N[C@H](C(=O)N[C@@H](Cc1c[nH]c2ccccc12)C(=O)N[C@@H](Cc1c[nH]c2ccccc12)C(=O)N[C@H](C(=O)N[C@@H](CCC(=O)O)C(=O)NCCS)[C@@H](C)O)[C@@H](C)O)[C@@H](C)O [Pep-1-cya] (Ac-YGFKKRRWSQPKETWETWWTE-Cysteamide)
- decrease of cell viability [4]: about 10%

Molecule: CSCC[C@H](NC(=O)[C@@H](NC(=O)[C@H](CO)NC(=O)CNC(=O)[C@H](C)NC(=O)[C@H](C)NC(=O)CNC(=O)[C@H](CC(C)C)NC(=O)[C@H](Cc1ccccc1)NC(=O)CNC(=O)[C@H](CC(C)C)NC(=O)[C@H](Cc1ccccc1)NC(=O)[C@H](CC(C)C)NC(=O)[C@H](C)NC(=O)CNC(C)=O)[C@@H](C)O)C(=O)NCC(=O)N[C@@H](C)C(=O)N[C@@H](Cc1c[nH]c2ccccc12)C(=O)N[C@@H](CO)C(=O)N[C@@H](CCC(N)=O)C(=O)N1CCC[C@H]1C(=O)N[C@@H](CCCCN)C(=O)N[C@@H](CO)C(=O)N[C@@H](CCCCN)C(=O)N[C@@H](CCCNC(=N)N)C(=O)N[C@@H](CCCCN)C(=O)N[C@H](C(=O)NCCS)C(C)C [MPG] (Ac-GALFLGFLGAAGSTMGAWSQPKSKRKV-Cysteamide)
- decrease of cell viability ([5]; MPG alone 0.1 mM): ~25%
- decrease of cell viability ([5]; MPG alone 1 mM): ~60%
- cytotoxic effects ([5]; MPG alone up to 10 μM, 48 h at 37° C.): did not induce any cytotoxic effects
- cytotoxicity ([5]; MPG complexed with pRL-SV40 at 5:1 ratio, 0.1 mM MPG): no cytotoxicity could be observed
- decrease of cell viability ([5]; MPG complexed with pRL-SV40 at 5:1 ratio, 1 mM MPG): ~40%
- solubility [6]: highly soluble

Molecule: MGLGLHLLVLAAALQGAKKKRKV (Ac-MGLGLHLLVLAAALQGAKKKRKV; not fully specified (C-terminus); printed as MGLGLHLLVLAAALQGAKKKRKV) [[2]]
- surface pressure increase [1]: ~15 mN/m
- effect on membrane potential and transmembrane pH gradient [2]: decrease
- channel formation [7]: induce formation of transmembrane ionic channels
- final localization of lucifer yellow-linked peptide [3]: localize in the nuclei of the cells

Molecule: 5′-ACCAGCCTTCCGATCCACCAGTCATT-3′ (DNA, backbone not given here; 3' fluorescein conjugate, 5' thiol group, peptide conjugated) [second ODN]
- cells labeled in the nucleus ([8]; ODN conjugated to peptide, 5 min incubation at 37° C.): more than 90%
- cells labeled ([8]; free ODN, 3 hours incubation): 25%
- reduction of Ba^2+ current density [9]: ≈ 7 fold
